Measured values: patent publication US7906502B2, “2-azetidinone derivatives as cholesterol absorption inhibitors for the treatment of hyperlipidaemic conditions” (AstraZeneca AB, priority 2005, dated 2011)

What was measured:
[1] = Absorption in a Caco-2 cells model; type: in vitro ADME; conditions: human
Procedure: Absorption of the compounds of formula (I) was tested in a Caco-2 cells model (Gastroenterology 1989, 96, 736): […]

[2] = system: 14C-cholesterol absorption; test: In vivo testing of cholesterol absorption inhibitors (A); parameters: species or system C57BL/6 female mice; conditions: 0.2 μmol/kg, gavage, procedure A, mice
Procedure: In vivo Testing of Cholesterol Absorption Inhibitors (A)
C57BL/6 female mice were maintained on regular chow diet and housed in individual cages to collect faeces. Mice were fasted for 3 hours and then gavaged with vehicle or compound. Half an hour later the mice were gavaged with radiolabelled cholesterol. Six hours after the ^14C-cholesterol gavage blood samples were taken via the tail and plasma prepared to determine how much cholesterol were absorbed. 24 hours after the gavage of ^14C-cholesterol the mice were bled and plasma were prepared for analysis. Faeces were collected for 24 hours to assess absorption efficiency.

Papp [1] | SMILES | inhibition of 14C-cholesterol absorption [2]
0.05 ×10⁻⁶ cm/s | O=C(COc1ccc([C@@H]2[C@@H](SCC(O)c3ccc4c(c3)OCO4)C(=O)N2c2ccc(F)cc2)cc1)NCC(=O)N[C@H](CC1CCCCC1)C(=O)O (single isomer, unassigned) [Example 13, N-({4-[(2R,3R)-3-{[(2R or S)-2-(1,3-benzodioxol-5-yl)-2-hydroxyethyl]thio}-1-(4-fluorophenyl)-4-oxoazetidin-2-yl]phenoxy}acetyl)glycyl-3-cyclohexyl-D-alanine] | 
0.02 ×10⁻⁶ cm/s | CC(C)(C)[C@@H](NC(=O)CNC(=O)COc1ccc([C@@H]2[C@@H](SCC(O)c3ccc4c(c3)OCCO4)C(=O)N2c2ccc(F)cc2)cc1)C(=O)O (stereo partly drawn) [Example 1, N-({4-[(2R,3R)-3-{[2-(2,3-dihydro-1,4-benzodioxin-6-yl)-2-hydroxyethyl]thio}-1-(4-fluorophenyl)-4-oxoazetidin-2-yl]phenoxy}acetyl)glycyl-3-methyl-D-valine] | 61%
 | CC(C)(C)[C@@H](NC(=O)CNC(=O)COc1ccc([C@@H]2[C@@H](SCC(O)c3ccc4c(c3)OCO4)C(=O)N2c2ccc(F)cc2)cc1)C(=O)O (stereo partly drawn) [Example 3, N-({4-[(2R,3R)-3-{[2-(1,3-Benzodioxol-5-yl)-2-hydroxyethyl]thio}-1-(4-fluorophenyl)-4-oxoazetidin-2-yl]phenoxy}acetyl)glycyl-3-methyl-D-valine] | 67%
